Experiments:
Assay in all cases: cell viability (% survival relative to DMSO control, bortezomib = 0%); higher = less cytotoxic
Conditions in all cases: 72 h
[1] = test system: MV4-11
In short: (§1)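 Percent survival figures are means of duplicate wells. They were obtained by CellTiter-Glo luminescence after 10 AML and 5 CML cell lines spent 72 h at 37 °C with 5% CO2 in 384-well plates with compounds at 1, 10, 100, 1000 or 10000 nM. Vehicle was set to 100% and a 10 µM positive control to 0%.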

[2] = test system: ML-2
In short: as §1

[3] = test system: KU-812
In short: as §1

[4] = test system: KCL-22
In short: as §1

| SMILES | cell viability ([1]; 1 nM) [%] | cell viability ([1]; 10 nM) [%] | cell viability ([1]; 100 nM) [%] | cell viability ([1]; 1000 nM) [%] | cell viability ([1]; 10000 nM) [%] | cell viability ([2]; 1 nM) [%] | cell viability ([2]; 10 nM) [%] | cell viability ([2]; 100 nM) [%] | cell viability ([2]; 1000 nM) [%] | cell viability ([2]; 10000 nM) [%] | cell viability ([3]; 1 nM) [%] | cell viability ([3]; 10 nM) [%] | cell viability ([3]; 100 nM) [%] | cell viability ([3]; 1000 nM) [%] | cell viability ([3]; 10000 nM) [%] | cell viability ([4]; 1 nM) [%] | cell viability ([4]; 10 nM) [%] | cell viability ([4]; 100 nM) [%] | cell viability ([4]; 1000 nM) [%] | cell viability ([4]; 10000 nM) [%] |
| --- | --- | --- | --- | --- | --- | --- | --- | --- | --- | --- | --- | --- | --- | --- | --- | --- | --- | --- | --- | --- |
| Cc1noc2c1-c1ccccc1C(c1ccc(Cl)cc1)=N[C@H]2CC(N)=O [CPI-0610] | 86.1 | 84 | 57.2 | 3.4 | 1.28 | 108 | 91.2 | 92.5 | 62.9 | 33.9 | 97.2 | 99.8 | 73.1 | 36 | 4.66 | 123 | 94.6 | 91.3 | 49 | 27.7 |
| COc1c(C)c2c(c(O)c1C/C=C(\C)CCC(=O)O)C(=O)OC2 [Mycophenolic acid] | 103 | 94.5 | 90.7 | 26.5 | -0.47 | 116 | 105 | 86.5 | 22.7 | 8.02 | 94.6 | 94.5 | 104 | 51.7 | 10.9 | 105 | 98.8 | 79.8 | 24.7 | 8.9 |
| CN(C)c1nc(O)c2[nH]cnc2n1 [2-Dimethylamino-6-hydroxypurine] | 101 | 98.8 | 97.2 | 102 | 89.8 | 97.7 | 89.6 | 95.3 | 107 | 94.5 | 93.8 | 96.7 | 91 | 94.2 | 103 | 98.2 | 81.3 | 106 | 99 | 87.1 |
| O=C1Nc2ccccc2/C1=C\NCCc1ccc(O)c(O)c1 [AC1NZZMF] | 113 | 89.4 | 93.8 | 84.9 | 75.7 | 113 | 111 | 101 | 95.4 | 75.9 | 114 | 113 | 108 | 110 | 68.7 | 79.2 | 90.9 | 102 | 106 | 94.3 |
| CCCc1nn(C)c2c(O)nc(-c3cc(S(=O)(=O)N4CCN(C)CC4)ccc3OCC)nc12 [Sildenafil] | 99.6 | 95.1 | 101 | 98.8 | 119 | 92.3 | 103 | 93.1 | 109 | 107 | 87.5 | 104 | 91.3 | 107 | 92.1 | 89.7 | 102 | 97.5 | 88.7 | 113 |
| CCOc1ccc(Cc2cc([C@@H]3O[C@H](CO)[C@@H](O)[C@H](O)[C@H]3O)ccc2Cl)cc1 [Dapagliflozin] | 93.7 | 106 | 94.3 | 94.6 | 86.9 | 84.8 | 111 | 85.1 | 108 | 105 | 85.7 | 96.5 | 90.5 | 106 | 81.3 | 116 | 109 | 54.2 | 96.7 | 107 |
| CC(Cc1ccc(O)c(O)c1)C(C)Cc1ccc(O)c(O)c1 (stereo not given) [Masoprocol] | 108 | 91.6 | 92.5 | 97.2 | 9.84 | 99.2 | 103 | 96.1 | 101 | 3.98 | 102 | 94.3 | 102 | 102 | 59.4 | 99.8 | 85.9 | 120 | 108 | 66.2 |
| O=P(O)(O)C(O)(Cn1ccnc1)P(=O)(O)O [Zoledronic acid] | 94.7 | 104 | 88.7 | 101 | 81.5 | 80.5 | 94.9 | 92.6 | 105 | 102 | 96.1 | 95.7 | 95.9 | 94.6 | 92.7 | 107 | 103 | 102 | 104 | 97.4 |
| Cc1ccc(S(=O)(=O)NC2c3ccccc3Oc3ccccc32)cc1 [AH-7614] | 94 | 94.1 | 100 | 94.7 | 93.3 | 97.3 | 99.2 | 104 | 104 | 114 | 93.7 | 101 | 99.1 | 97.7 | 106 | 75.6 | 84 | 128 | 101 | 80.8 |
| O=C(O)C(S)=Cc1c[nH]c2ccc(F)cc12 | 96.2 | 97.6 | 81.7 | 103 | 83.6 | 101 | 98.6 | 113 | 111 | 91.5 | 102 | 103 | 101 | 112 | 102 | 111 | 94.6 | 102 | 112 | 101 |
| NC(=O)c1ncn([C@@H]2O[C@H](CO)[C@@H](O)[C@H]2O)n1 [Ribavirin] | 110 | 92.1 | 89.8 | 137 | 81.8 | 95.4 | 103 | 97.7 | 94.3 | 111 | 81.4 | 92.7 | 91.3 | 104 | 94.6 | 72.9 | 104 | 114 | 107 | 103 |
| C[C@]12CC[C@H](O)CC1=CC[C@@H]1[C@@H]2CC[C@]2(C)C(c3cccnc3)=CC[C@@H]12 [Abiraterone] | 96.4 | 96.5 | 107 | 114 | 99 | 116 | 97.2 | 101 | 118 | 110 | 88.8 | 94.8 | 101 | 108 | 101 | 99.6 | 92 | 111 | 112 | 87.2 |
| C[C@H]1O[C@@H](O[C@H]2[C@@H](O)C[C@H](O[C@H]3[C@@H](O)C[C@H](O[C@H]4CC[C@@]5(C)[C@H](CC[C@@H]6[C@@H]5C[C@@H](O)[C@]5(C)[C@@H](C7=CC(=O)OC7)CC[C@]65O)C4)O[C@@H]3C)O[C@@H]2C)C[C@H](O)[C@@H]1O [Digoxin] | 110 | 114 | 4.71 | 0.26 | 0.435 | 99 | 109 | 5.07 | -0.2 | -0.154 | 92.2 | 113 | 30.5 | 4.45 | 4.24 | 99.1 | 95.3 | 25 | 0.788 | 0.361 |
